The NIST ThermoML archive (doi:10.1016/j.jct.2018.11.014)

Experiment: molar heat capacity at constant pressure
Details: 101.33 kPa, Crystal, Vacuum adiabatic calorimetry

O=C(CO)[C@@H](O)[C@H](O)[C@H](O)CO [D-fructose]
Details | molar heat capacity at constant pressure [J/K/mol]
10 K | 0.91
14.06 K | 2.815
14.48 K | 3.13
14.92 K | 3.379
15.36 K | 3.634
15.81 K | 3.919
16.27 K | 4.218
16.77 K | 4.66
17.29 K | 5.05
17.75 K | 5.334
18.24 K | 5.753
18.76 K | 6.186
19.31 K | 6.585
19.89 K | 7.065
20 K | 7.19
20.47 K | 7.626
21.03 K | 8.082
21.55 K | 8.514
22.09 K | 9.015
22.64 K | 9.566
23.22 K | 10.1
23.84 K | 10.61
24.41 K | 11.21
24.96 K | 11.67
25.84 K | 12.67
26.71 K | 13.5
27.31 K | 14.07
28.19 K | 14.91
29.03 K | 15.7
29.58 K | 16.16
30 K | 16.66
30.14 K | 16.84
30.73 K | 17.43
31.35 K | 18.05
31.98 K | 18.53
32.62 K | 19.19
33.28 K | 19.89
33.96 K | 20.59
34.65 K | 21.26
35.36 K | 21.95
36.07 K | 22.67
36.78 K | 23.42
37.5 K | 24.11
38.21 K | 24.83
38.91 K | 25.52
39.6 K | 26.21
40 K | 26.59
40.28 K | 26.89
40.99 K | 27.59
41.73 K | 28.3
42.48 K | 29.02
43.26 K | 29.78
44.03 K | 30.54
44.8 K | 31.29
45.6 K | 32.07
46.41 K | 32.85
47.23 K | 33.62
48.05 K | 34.43
48.87 K | 35.18
49.66 K | 35.98
50 K | 36.27
50.46 K | 36.72
51.3 K | 37.5
52.17 K | 38.33
53.08 K | 39.16
54 K | 40.03
54.92 K | 40.88
55.87 K | 41.75
56.84 K | 42.65
57.8 K | 43.54
58.75 K | 44.39
59.68 K | 45.25
60 K | 45.54
60.61 K | 46.09
61.55 K | 46.94
62.48 K | 47.76
63.4 K | 48.61
64.31 K | 49.43
65.22 K | 50.22
66.18 K | 51.08
67.16 K | 51.94
68.22 K | 52.9
69.33 K | 53.88
70 K | 54.46
70.43 K | 54.83
71.5 K | 55.79
72.63 K | 56.77
73.81 K | 57.78
74.97 K | 58.8
76.11 K | 59.77
77.23 K | 60.74
78.4 K | 61.72
79.61 K | 62.76
80 K | 63.1
80.81 K | 63.77
81.98 K | 64.8
83.14 K | 65.76
84.34 K | 66.77
85.59 K | 67.84
86.82 K | 68.83
88.03 K | 69.88
89.22 K | 70.89
90 K | 71.52
90.46 K | 71.89
91.74 K | 72.99
93 K | 73.99
94.24 K | 75.03
95.47 K | 76.03
96.74 K | 77.1
98.05 K | 78.13
99.34 K | 79.2
100 K | 79.73
100.61 K | 80.23
101.88 K | 81.25
103.17 K | 82.3
104.51 K | 83.38
105.83 K | 84.42
107.14 K | 85.5
108.44 K | 86.51
109.77 K | 87.55
110 K | 87.77
111.13 K | 88.69
112.49 K | 89.72
113.83 K | 90.79
115.15 K | 91.82
116.54 K | 92.94
118 K | 94.07
119.43 K | 95.21
120 K | 95.65
120.86 K | 96.29
122.27 K | 97.42
123.72 K | 98.53
125.19 K | 99.73
126.66 K | 100.86
128.15 K | 101.99
129.65 K | 103.12
130 K | 103.4
131.18 K | 104.32
132.78 K | 105.56
134.41 K | 106.79
136.01 K | 107.97
137.61 K | 109.25
139.24 K | 110.5
140 K | 111.05
140.9 K | 111.75
142.55 K | 112.96
144.18 K | 114.21
145.81 K | 115.47
147.46 K | 116.73
149.19 K | 117.96
150 K | 118.61
150.94 K | 119.3
152.67 K | 120.61
154.39 K | 121.92
156.15 K | 123.22
157.94 K | 124.55
159.71 K | 125.9
160 K | 126.11
161.48 K | 127.16
163.23 K | 128.53
165.01 K | 129.85
166.83 K | 131.22
168.63 K | 132.53
170 K | 133.55
170.42 K | 133.87
172.26 K | 135.21
174.19 K | 136.66
176.16 K | 138.12
178.11 K | 139.54
180 K | 140.95
180.05 K | 140.98
181.97 K | 142.44
183.93 K | 143.86
185.92 K | 145.37
187.9 K | 146.78
189.86 K | 148.24
190 K | 148.33
191.82 K | 149.62
193.8 K | 151.13
195.89 K | 152.65
198.03 K | 154.23
200 K | 155.71
200.16 K | 155.79
202.27 K | 157.38
204.41 K | 158.97
206.59 K | 160.59
208.75 K | 162.27
210 K | 163.12
210.91 K | 163.79
213.05 K | 165.43
215.22 K | 166.88
217.41 K | 168.61
219.6 K | 170.28
220 K | 170.57
221.78 K | 172.01
223.94 K | 173.59
226.14 K | 175.1
228.44 K | 176.89
230 K | 178.09
230.8 K | 178.65
233.16 K | 180.52
235.5 K | 182.33
237.87 K | 184.07
240 K | 185.67
240.27 K | 185.87
242.65 K | 187.7
245.03 K | 189.43
247.39 K | 191.32
249.78 K | 193.01
250 K | 193.28
252.2 K | 194.95
254.6 K | 196.74
257 K | 198.58
259.38 K | 200.5
260 K | 200.91
261.79 K | 202.31
264.29 K | 204.15
266.82 K | 206.25
269.35 K | 208.09
270 K | 208.52
271.87 K | 210.03
274.41 K | 211.71
276.98 K | 213.84
279.54 K | 215.75
280 K | 216.17
282.08 K | 217.72
284.61 K | 219.77
287.17 K | 221.78
289.76 K | 223.86
290 K | 224.03
292.33 K | 225.93
294.92 K | 227.98
297.52 K | 230.08
298.15 K | 230.55
300 K | 232.04
300.15 K | 232.18
302.81 K | 234.38
305.45 K | 236.46
308.08 K | 238.4
310 K | 240.14
310.7 K | 240.73
313.34 K | 242.98
316 K | 244.99
318.66 K | 247.19
320 K | 248.27
321.3 K | 249.35
323.93 K | 251.32
326.58 K | 253.53
329.26 K | 255.9
330 K | 256.36
